Values joined by “and” are separate entries in the source; they are usually repeats but may differ in a detail not shown here. Identical values can stand only once.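 Where inhibition never reached the appropriate level, the endpoint shown equals the highest concentration tested. Otherwise, values were interpolated linearly from a five-concentration, 48-hour dose response in 96-well plates. GI50 is the concentration that inhibits growth by half. TGI is the concentration that stops growth completely.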
What was measured:
Experiment in all cases: DTP human tumour cell line panel, 48 h
HCT-15 colon = tested on: HCT-15 colon
MDA-MB-468 breast = tested on: MDA-MB-468 breast
SR leukemia = tested on: SR leukemia
M14 melanoma = tested on: M14 melanoma
RXF 393 renal = tested on: RXF 393 renal
HL-60(TB) leukemia = tested on: HL-60(TB) leukemia
TK-10 renal = tested on: TK-10 renal
SK-MEL-5 melanoma = tested on: SK-MEL-5 melanoma
LOX IMVI melanoma = tested on: LOX IMVI melanoma
786-0 renal = tested on: 786-0 renal
SN12C renal = tested on: SN12C renal
SW-620 colon = tested on: SW-620 colon
CAKI-1 renal = tested on: CAKI-1 renal
IGROV1 ovarian = tested on: IGROV1 ovarian
HCT-116 colon = tested on: HCT-116 colon
KM12 colon = tested on: KM12 colon
NCI-H23 lung = tested on: NCI-H23 lung
SF-295 CNS = tested on: SF-295 CNS
A549 NSCLC = tested on: A549 NSCLC
OVCAR-3 ovarian = tested on: OVCAR-3 ovarian
PC-3 prostate = tested on: PC-3 prostate
ACHN renal = tested on: ACHN renal
OVCAR-5 ovarian = tested on: OVCAR-5 ovarian
U251 CNS = tested on: U251 CNS
OVCAR-4 ovarian = tested on: OVCAR-4 ovarian
MDA-MB-231 breast = tested on: MDA-MB-231 breast
K-562 leukemia = tested on: K-562 leukemia
BT-549 breast = tested on: BT-549 breast
NCI-H522 lung = tested on: NCI-H522 lung
NCI-H460 lung = tested on: NCI-H460 lung
SNB-75 CNS = tested on: SNB-75 CNS
MDA-MB-435 = tested on: MDA-MB-435
HT29 colon = tested on: HT29 colon
HOP-92 NSCLC = tested on: HOP-92 NSCLC
UO-31 renal = tested on: UO-31 renal
DU-145 prostate = tested on: DU-145 prostate
SF-539 CNS = tested on: SF-539 CNS
MOLT-4 leukemia = tested on: MOLT-4 leukemia
HOP-62 NSCLC = tested on: HOP-62 NSCLC
SK-MEL-2 melanoma = tested on: SK-MEL-2 melanoma
UACC-257 melanoma = tested on: UACC-257 melanoma
NCI-H226 lung = tested on: NCI-H226 lung
HS 578T breast = tested on: HS 578T breast
SK-MEL-28 melanoma = tested on: SK-MEL-28 melanoma
T-47D breast = tested on: T-47D breast
HCC-2998 colon = tested on: HCC-2998 colon
EKVX NSCLC = tested on: EKVX NSCLC
SNB-19 CNS = tested on: SNB-19 CNS
NCI/ADR-RES ovarian = tested on: NCI/ADR-RES ovarian
COLO 205 colon = tested on: COLO 205 colon
A498 renal = tested on: A498 renal
UACC-62 melanoma = tested on: UACC-62 melanoma
CCRF-CEM leukemia = tested on: CCRF-CEM leukemia
RPMI-8226 leukemia = tested on: RPMI-8226 leukemia
SK-OV-3 ovarian = tested on: SK-OV-3 ovarian
SF-268 CNS = tested on: SF-268 CNS
MALME-3M melanoma = tested on: MALME-3M melanoma
MCF7 breast = tested on: MCF7 breast
OVCAR-8 ovarian = tested on: OVCAR-8 ovarian

## CC1=C(CCC=NNC(N)=O)C2=C(C)C3(CC3)[C@@](C)(O)C(=O)C2=C1
HCT-15 colon
  GI50: 0.122 µM
  TGI: 0.616 µM
MDA-MB-468 breast
  GI50: 0.187 µM and 0.0316 µM
  TGI: 0.691 µM and 0.0953 µM
SR leukemia
  GI50: 1.82 µM
  TGI: > 100 µM
M14 melanoma
  GI50: 0.0745 µM
  TGI: 0.253 µM
RXF 393 renal
  GI50: 0.0194 µM
  TGI: 0.0418 µM
HL-60(TB) leukemia
  GI50: 0.0568 µM
TK-10 renal
  GI50: 0.278 µM
  TGI: 1.26 µM
SK-MEL-5 melanoma
  GI50: 0.094 µM
  TGI: 0.248 µM
LOX IMVI melanoma
  GI50: 0.149 µM
  TGI: 0.41 µM
786-0 renal
  GI50: 0.113 µM
  TGI: 0.428 µM
SN12C renal
  GI50: 0.0923 µM
  TGI: 0.654 µM
SW-620 colon
  GI50: 1.44 µM
  TGI: 3.74 µM
CAKI-1 renal
  GI50: 0.133 µM
  TGI: 1.11 µM
IGROV1 ovarian
  GI50: 0.0356 µM
  TGI: 0.161 µM
HCT-116 colon
  GI50: 0.142 µM
  TGI: 1.4 µM
KM12 colon
  GI50: 0.506 µM
  TGI: 7.67 µM
NCI-H23 lung
  GI50: 0.0172 µM
  TGI: 0.045 µM
SF-295 CNS
  GI50: 0.0893 µM
  TGI: 1.21 µM
A549 NSCLC
  GI50: 0.122 µM
  TGI: 2.16 µM
OVCAR-3 ovarian
  GI50: 0.132 µM
  TGI: 0.828 µM
PC-3 prostate
  GI50: 0.175 µM
  TGI: 1.96 µM
ACHN renal
  GI50: 0.0687 µM
  TGI: 0.344 µM
OVCAR-5 ovarian
  GI50: 0.0451 µM
  TGI: 0.364 µM
U251 CNS
  GI50: 0.21 µM
  TGI: 0.936 µM
OVCAR-4 ovarian
  GI50: 0.172 µM
  TGI: 0.574 µM
MDA-MB-231 breast
  GI50: 0.142 µM
  TGI: 0.435 µM
K-562 leukemia
  GI50: 2.32 µM
  TGI: > 37.9 µM
BT-549 breast
  GI50: 0.0605 µM
  TGI: 0.212 µM
NCI-H522 lung
  GI50: 0.165 µM
  TGI: 0.414 µM
NCI-H460 lung
  GI50: 0.0243 µM
  TGI: 0.218 µM
SNB-75 CNS
  GI50: 0.0725 µM
  TGI: 0.226 µM
MDA-MB-435
  GI50: 0.267 µM
  TGI: 0.941 µM
HT29 colon
  GI50: 0.17 µM
  TGI: 0.74 µM
HOP-92 NSCLC
  GI50: 0.0346 µM
  TGI: 0.18 µM
UO-31 renal
  GI50: 0.0712 µM
  TGI: 0.277 µM
DU-145 prostate
  GI50: 0.0347 µM
  TGI: 1.2 µM
SF-539 CNS
  GI50: 0.032 µM
  TGI: 0.128 µM
MOLT-4 leukemia
  GI50: 1.18 µM
  TGI: > 41.5 µM
HOP-62 NSCLC
  GI50: 0.0744 µM
  TGI: 0.802 µM
SK-MEL-2 melanoma
  GI50: 0.193 µM
  TGI: 0.362 µM
UACC-257 melanoma
  GI50: 0.19 µM
  TGI: 0.427 µM
NCI-H226 lung
  GI50: 0.2 µM
  TGI: 0.646 µM
HS 578T breast
  GI50: 0.249 µM
  TGI: 1.07 µM
SK-MEL-28 melanoma
  GI50: 0.187 µM
  TGI: 0.369 µM
T-47D breast
  GI50: 0.0862 µM
  TGI: 2.74 µM
HCC-2998 colon
  GI50: 0.0941 µM
  TGI: 0.259 µM
EKVX NSCLC
  GI50: 0.177 µM
  TGI: 0.526 µM
SNB-19 CNS
  GI50: 0.225 µM
  TGI: 0.894 µM
NCI/ADR-RES ovarian
  GI50: 0.104 µM
  TGI: 0.407 µM
COLO 205 colon
  GI50: 0.152 µM
  TGI: 0.314 µM
A498 renal
  GI50: 0.208 µM
  TGI: 0.511 µM
UACC-62 melanoma
  GI50: 0.142 µM
  TGI: 0.292 µM
CCRF-CEM leukemia
  GI50: 2.36 µM
  TGI: > 35.2 µM
RPMI-8226 leukemia
  GI50: 3.02 µM
  TGI: > 35.2 µM
SK-OV-3 ovarian
  GI50: 0.0422 µM
  TGI: 0.334 µM
SF-268 CNS
  GI50: 0.0343 µM
  TGI: 0.423 µM
MALME-3M melanoma
  GI50: 0.0822 µM
  TGI: 0.218 µM

## O=C1Nc2ccc(Cl)cc2/C1=C/c1cccc(OCc2ccccc2)c1
HCT-15 colon
  GI50: 9.4 µM
  TGI: 94.6 µM
MDA-MB-468 breast
  GI50: 6.52 µM
  TGI: 67.5 µM
SR leukemia
  GI50: 5.66 µM
  TGI: 21.8 µM
M14 melanoma
  GI50: 19.5 µM
  TGI: > 100 µM
RXF 393 renal
  GI50: 18.4 µM
  TGI: 95.9 µM
HL-60(TB) leukemia
  GI50: 13.3 µM
  TGI: 57.8 µM
TK-10 renal
  GI50: 56.1 µM
  TGI: > 100 µM
SK-MEL-5 melanoma
  GI50: 28.1 µM
  TGI: > 100 µM
LOX IMVI melanoma
  GI50: 10.2 µM
  TGI: 40.4 µM
786-0 renal
  GI50: 14.1 µM
  TGI: 32.6 µM
SN12C renal
  GI50: 20.5 µM
  TGI: 88.8 µM
SW-620 colon
  GI50: 19.9 µM
  TGI: 75.9 µM
CAKI-1 renal
  GI50: 10.8 µM
  TGI: 32 µM
IGROV1 ovarian
  GI50: 12.3 µM
  TGI: 61.2 µM
HCT-116 colon
  GI50: 10.7 µM
  TGI: > 100 µM
KM12 colon
  GI50: 20.1 µM
  TGI: > 100 µM
NCI-H23 lung
  GI50: 22 µM
  TGI: > 100 µM
SF-295 CNS
  GI50: 37 µM
  TGI: > 100 µM
A549 NSCLC
  GI50: 18.3 µM
  TGI: > 100 µM
OVCAR-3 ovarian
  GI50: 12.4 µM
  TGI: 31.7 µM
PC-3 prostate
  GI50: 14.9 µM
  TGI: 82 µM
ACHN renal
  GI50: 15 µM
  TGI: 37.3 µM
MCF7 breast
  GI50: 3.9 µM
  TGI: 75.1 µM
OVCAR-5 ovarian
  GI50: 27.5 µM
  TGI: > 100 µM
U251 CNS
  GI50: 14.8 µM
  TGI: 55.4 µM
OVCAR-4 ovarian
  GI50: 11.8 µM
  TGI: 63.2 µM
MDA-MB-231 breast
  GI50: 15.3 µM
  TGI: 37.9 µM
K-562 leukemia
  GI50: 11 µM
  TGI: 37.8 µM
BT-549 breast
  GI50: 14.3 µM
  TGI: 66.1 µM
NCI-H522 lung
  GI50: 24 µM
  TGI: > 100 µM
NCI-H460 lung
  GI50: 14 µM
  TGI: 37.9 µM
SNB-75 CNS
  GI50: 16.7 µM
  TGI: 56 µM
MDA-MB-435
  GI50: 24 µM
  TGI: 98.8 µM
HT29 colon
  GI50: 37.8 µM
  TGI: > 100 µM
HOP-92 NSCLC
  GI50: 2.16 µM
  TGI: 13.4 µM
UO-31 renal
  GI50: 7.91 µM
  TGI: > 100 µM
DU-145 prostate
  GI50: 17 µM
  TGI: 45.3 µM
SF-539 CNS
  GI50: 18.5 µM
  TGI: 48.6 µM
MOLT-4 leukemia
  GI50: 4.96 µM
  TGI: 23.6 µM
HOP-62 NSCLC
  GI50: 25.6 µM
  TGI: 79.8 µM
SK-MEL-2 melanoma
  GI50: 31.2 µM
  TGI: > 100 µM
UACC-257 melanoma
  GI50: 53.8 µM
  TGI: > 100 µM
NCI-H226 lung
  GI50: 14.1 µM
  TGI: 84.6 µM
HS 578T breast
  GI50: 16 µM
  TGI: 72.9 µM
SK-MEL-28 melanoma
  GI50: 16.5 µM
  TGI: 44.3 µM
T-47D breast
  GI50: 16.1 µM
  TGI: > 100 µM
HCC-2998 colon
  GI50: 41.2 µM
  TGI: > 100 µM
EKVX NSCLC
  GI50: 20.5 µM
  TGI: > 100 µM
SNB-19 CNS
  GI50: 17.9 µM
  TGI: 58.8 µM
COLO 205 colon
  GI50: 37.4 µM
  TGI: > 100 µM
A498 renal
  GI50: 38 µM
  TGI: > 100 µM
UACC-62 melanoma
  GI50: 8.87 µM
  TGI: 35.4 µM
CCRF-CEM leukemia
  GI50: 11.2 µM
  TGI: 32.1 µM
OVCAR-8 ovarian
  GI50: 20.2 µM
  TGI: 61.8 µM
RPMI-8226 leukemia
  GI50: 7.46 µM
  TGI: 36.7 µM
SK-OV-3 ovarian
  GI50: 59 µM
  TGI: > 100 µM
SF-268 CNS
  GI50: 14.6 µM
  TGI: 49.4 µM
MALME-3M melanoma
  GI50: 21.1 µM
  TGI: 64.7 µM

## Cc1ccc2cc3c(cc(C)c4ccccc43)c3c2c1CC3
MDA-MB-468 breast
  GI50: > 100 µM
  TGI: > 100 µM
